This note sets out measurements from patent US12582706B2, “Tolerogenic antigen presenting cells” (Cell4Cure AB, priority 2019, dated 2026).

In the assay the test system is DCs. Nature of the assay: DC frequency of CD141^+GARP^+ cells (flow cytometry). It counts as cell-based, human. The settings on record: Example 13, FIG. 13(F); compared to control DCs. The procedure:
CD14^+ monocytes were cultured at 1.25×10^6 cells/mi for 7 days in GMP DC Medium (CellGenix, Freiburg, Germany) containing HEPES, GlutaMAX and Penicillin-Streptomycin solution (Thermo Fisher, Waltham, MA) in the presence of granulocyte-macrophage colony-stimulating factor (GM-CSF; 100 ng/ml; PeproTech, London, UK) and interleukin-4 (IL-4; 100 ng/ml; PeproTech). Cells were replenished on day 3 with fresh medium and cytokines. […]
Cell surface expression was investigated using the following fluorescently labeled antibodies: CD11c (B-Ly6), CD83 (HB15e), CD86 (BU63), ILT3 (ZM4.1), CD141 (M80), GARP (7611), CD103 (B-Ly7), MERTK (590H11G1E3), BTLA (J168-540), CD49b (P1E6-05), HLA-G (87G), LAP (FNLAP), from BD Biosciences (Franklin Lakes, NJ), BioLegend (San Diego, CA) and Thermo Fisher. DCs were washed and resuspended in staining buffer (phosphate-buffered saline supplemented with 0.5% BSA and 2 mM EDTA) and incubated with antibody for 20 min followed by washing before acquisition on a MACSQuant 10 flow cytometer (Miltenyi Biotec) and analyzed using FlowJo software (BD Biosciences). […]

Consider `CC1=C(/C=C/C(C)=C/C=C/C(C)=C/C(=O)O)C(C)(C)CCC1` [RA, all-trans retinoic acid], for which the “frequency of GARP^+CD141^+ cells” value was “higher frequency of GARP^+CD141^+ cells”.
